From ChEMBL document CHEMBL1150343, “Guanidine and 2-aminoimidazoline aromatic derivatives as alpha2-adrenoceptor antagonists. 2. Exploring alkyl linkers for new antidepressants” (J Med Chem, 2008)

Assays:
[1] = Displacement of [3H]RX821002 from alpha2 adrenergic receptor in human brain prefrontal cortex tissue by liquid scintillation spectrometry; assay type: tissue-based
[2] = Agonist activity at alpha2 adrenergic receptor in human brain prefrontal cortex tissue by [35S]GTPgamma S binding assay relative to UK-14304; assay type: functional
[3] = Agonist activity at alpha2 adrenergic receptor in human brain prefrontal cortex tissue by [35S]GTPgamma S binding assay; assay type: functional, tissue-based
[4] = system: Rattus norvegicus; experiment: Increase in extracellular noradrenaline levels in Sprague-Dawley rat brain prefrontal cortex at 1 to 100 uM, locally administered by microdialysis by relative to control
[5] = system: Rattus norvegicus; experiment: Increase in extracellular noradrenaline levels in Sprague-Dawley rat brain prefrontal cortex at 10 mg/kg, ip systematically administered by microdialysis by relative to control; assay type: functional; conditions: route intraperitoneal

pKi [1]	SMILES	also measured
6.56	c1ccc(Nc2ccc(NC3=NCCN3)cc2)cc1	–
6.38	Cl.N=C(N)Nc1ccc(Cc2ccccc2)cc1	–
6.51	Cl.N=C(N)Nc1ccc2c(c1)CCC2	–
9.04	COC1(C2=NCCN2)COc2ccccc2O1 (stereo not given)	Emax [4]: 287%
6.32	c1cc2c(cc1NC1=NCCN1)Cc1cc(NC3=NCCN3)ccc1-2	–
6.3	N=C(N)Nc1ccc(Sc2ccccc2)cc1	–
6.4	N=C(N)Nc1ccc2c(c1)OCO2	–
–	c1ccc2c(c1)OCC(C1=NCCN1)O2 (stereo not given) [IDAZOXAN]	Emax [4]: 235%
7.58	c1cc2c(cc1NC1=NCCN1)Cc1ccc(NC3=NCCN3)cc1C2	–
7.96	N=C(N)Nc1ccc2c(c1)Cc1ccc(NC(=N)N)cc1C2	–
6.4	CSc1ccc(NC(=N)N)cc1	–
6.62	c1ccc(Sc2ccc(NC3=NCCN3)cc2)cc1	–
5.55	CCc1ccc(NC(=N)N)cc1.Cl	–
6.58	c1ccc(Oc2ccc(NC3=NCCN3)cc2)cc1	–
6.05	N=C(N)Nc1ccc(Oc2ccccc2)cc1	–
5.58	N=C(N)Nc1ccc(N)cc1	–
6.12	N=C(N)Nc1ccc2c(c1)Cc1cc(NC(=N)N)ccc1-2	–
6.53	Cc1ccc(NC(=N)N)cc1.Cl	–
5.88	N=C(N)Nc1ccc(CCc2ccc(NC(=N)N)cc2)cc1	–
6.19	Cl.N=C(N)Nc1ccccc1	–
6.85	Cl.c1ccc(Cc2ccc(NC3=NCCN3)cc2)cc1	–
7.02	c1cc(NC2=NCCN2)ccc1CCc1ccc(NC2=NCCN2)cc1	Activity [5]: 156%; Emax [4]: 255%
6.39	COc1ccc(NC(=N)N)cc1	–
7.11	Cl.N=C(N)Nc1ccc2c(c1)CCCC2	Activity [5]: 373%; Emax [4]: 326%
8.21	N=C(N)Nc1ccc2c(c1)OCCO2	–
6.83	N=C(N)Nc1ccc(Nc2ccccc2)cc1	–

SMILES	pKi [1]	also measured
Cc1ccc(NC2=NCCN2)cc1C.Cl	7.68	Emax [2]: 89%; EC50 [3]: 62.9 µM
CCc1ccc(NC2=NCCN2)cc1.Cl	6.68	–
c1cc2c(cc1NC1=NCCN1)OCCO2	7.85	–
Cl.c1ccc(NC2=NCCN2)cc1	6.48	–
c1cc2c(cc1NC1=NCCN1)OCO2	7.33	–
Nc1ccc(NC2=NCCN2)cc1	6.92	–
CSc1ccc(NC2=NCCN2)cc1	7.07	–
COc1ccc(NC2=NCCN2)cc1	7.77	–
Cl.c1cc2c(cc1NC1=NCCN1)CCC2	8.26	Emax [2]: 98%; EC50 [3]: 4.4 µM
Cc1ccc(NC2=NCCN2)cc1.Cl	7.82	Emax [2]: 97%; EC50 [3]: 15.2 µM
Cl.c1cc2c(cc1NC1=NCCN1)CCCC2	7.33	Emax [2]: 100%; EC50 [3]: 1.1 µM
